Experimental findings from patent US9328092B2, “Acrylamide compounds as histamine H3 receptor ligands” (Suven Life Sciences Limited, priority 2012, dated 2016) are described below.

In one series the test system is Male Wister rats. Nature of the series: Object recognition task model. Particulars: 3 mg/kg, p.o. Format: in vivo. The protocol:
The cognition enhancing properties of compounds of this invention were estimated using a model of animal cognition: the object recognition task model.
Male Wister rats (230-280 grams) were used as experimental animals. Four animals were housed in each cage. Animals were kept on 20% food deprivation before one day and given water ad libitum throughout the experiment and maintained on a 12 hours light/dark cycle. Also the rats were habituated to individual arenas for 1 hour in the absence of any objects.
One group of 12 rats received vehicle (1 mL/Kg) orally and another set of animals received compound of the formula (I) either orally or i.p., before one hour of the familiar (T1) and choice trial (T2).
The experiment was carried out in a 50×50×50 cm open field made up of acrylic. In the familiarization phase, (T1), the rats were placed individually in the open field for 3 minutes, in which two identical objects (plastic bottles, 12.5 cm height×5.5 cm diameter) covered in yellow masking tape alone (a1 and a2) were positioned in two adjacent corners, 10 cm. from the walls. After 24 hours of the (T1) trial for long-term memory test, the same rats were placed in the same arena as they were placed in T1 trial. Choice phase (T2) rats were allowed to explore the open field for 3 minutes in presence of one familiar object (a3) and one novel object (b) (Amber color glass bottle, 12 cm high and 5 cm in diameter). Familiar objects presented similar textures, colors and sizes. During the T1 and T2 trial, explorations of each object (defined as sniffing, licking, chewing or having moving vibrissae whilst directing the nose towards the object at a distance of less than 1 cm) were recorded separately by stopwatch. Sitting on an object was not regarded as exploratory activity, however, it was rarely observed.
T1 is the total time spent exploring the familiar objects (a1+a2).
T2 is the total time spent exploring the familiar object and novel object (a3+b).
The object recognition test was performed as described by Ennaceur, A., Delacour, J., 1988, A new one-trial test for neurobiological studies of memory in rats—Behavioural data, Behav. Brain Res., 31, 47-59.

Series [1] can be described thus: Rodent brain penetration study. Format: in vivo, Male Wistar rats. As to conditions: male, Wistar, rat, brain homogenate / whole blood, po, 3 mg/kg, Wister rats/Male, Per-oral, 1 h post dose, read-out: Brain Penetration @ 1 h post dose (Cbrain/Cblood). The protocol: Male Wistar rats (230-280 grams) were used as experimental animals. Three animals were housed in each cage. Animals were given water and food ad libitum throughout the experiment and maintained on a 12 hours light/dark cycle. Brain penetration was determined in discrete manner in rats. One day prior to dosing day, male wistar rats (225-250 grams) were acclimatized. After acclimatization, the rats were grouped according to the weight in each group, 3 animals were kept in individual cage and allowed free access to food and water. At each time point (05, 1, and 2 hrs) n=3 animals were used. The compounds of formula (I) were dissolved in water and administered orally at (free base) 3 mg/kg. Blood samples were removed via, cardiac puncture by using light ether anesthesia the animals were sacrificed to collect brain tissue. Brain samples were homogenized and stored frozen at −20° C. until analysis. The concentrations of the compounds of formula (I) in blood and brain were determined using LC-MS/MS method. The compounds of formula (I) were quantified in blood and brain homogenate by validated LC-MS/MS method using acetonitrile precipitation technique. The compounds of formula (I) were quantified in the calibration range of 1-1000 ng/mL in blood and brain homogenate. Study samples were analyzed using calibration samples in the batch and quality control samples spread across the batch. Extents of brain to blood ratios were calculated (Cbrain/Cblood).

The nature of series [2]: Rodent pharmacokinetic study. The series is classed as in vivo. Particulars: rat, whole blood, Wistar rats/Male; for AUC(0-t) / Cmax / Tmax / half-life: blood. How it is done:
Male Wistar rats (230-280 grams) were used as experimental animals. Three to five animals were housed in each cage. One day prior to dosing day, male wistar rats (225-250 grams) were anesthetized with isoflurane for surgical placement of jugular vein catheter. Animals were kept fasted over night and maintained on a 12 hours light/dark cycle. Three rats were dosed with compounds of formula (I) orally (3 mg/Kg) and intravenously (1 mg/kg) in two separate set of animals (n=3 rats/group). At each time point, blood was collected by jugular vein. Blood was stored frozen at […] until analysis. The concentrations of the compounds of formula (I) in blood were determined using LC-MS/MS method. Schedule time points: Pre dose 0.08 (only for i.v.) 0.25, 0.5, 1, 2, 4, 6, 8, and 24 hours after dosing (n=3). The compounds of formula (I) were quantified in blood by validated LC-MS/MS method using acetonitrile precipitation technique. The compounds of formula (I) were quantified in the calibration range of 1-1000 ng/mL in blood. Study samples were analyzed using calibration samples in the batch and quality control samples spread across the batch. Pharmacokinetic parameters Cmax, Tmax, AUCt, T1/2 and Bioavailability were calculated by non-compartmental model using software Pheonix WinNonlin version 6.0.1.

In series [3] the target is Human or Rat Histamine H3 Receptor (UniProt Q9Y5N1). Description: Binding assay for human or rat histamine H3 receptor ([3H] R-α-methylhistamine displacement). As to conditions: [3H] R-α-methylhistamine 3.0 nM; rat brain frontal cortex or recombinant human receptor in CHO cells (source for table not stated). How it is done: Binding and Functional Assays for Human or Rat Histamine H3 Receptor
Compounds can be evaluated according to the following procedures.
• Receptor source: Rat brain frontal cortex or recombinant human cDNA expressed in CHO cells • Radioligand: [^3H] R-α-methylhistamine • Final ligand concentration—[3.0 nM] • Non-specific determinant: R-α-methylhistamine (100 μM) • Reference compound: R-α-methylhistamine • Positive control: R-α-methylhistamine Incubation Conditions:
Increasing concentrations of test compounds or standard were incubated with membrane receptors and radioligand in 5 mM MgCl2 and 50 mM TRIS-HCl (pH 7.4) for 60 minutes at room temperature. The reaction was terminated by rapid vacuum filtration onto the glass fiber filters. Radioactivity trapped onto the filters was determined and compared to the control values in order to ascertain any interactions of the test compound(s) with either cloned human or rat receptor binding site.

One may read the AUC(0-t) as exposure summed from dosing to a finite time, without extrapolation to infinity. The Cmax is the highest concentration seen after dosing. By Tmax is commonly meant the time at which the peak concentration occurs. A word on the half-life: it is how long it takes for the measured level to halve. A low value points to fast loss. As a reminder, the bioavailability is dose-corrected exposure relative to a reference, in per cent. Low readings indicate poor availability, high ones good availability. What is called Ki is a dissociation constant, usually derived from enzyme kinetics or from competition with a known ligand. As for `O=C(C=Cc1ccc(OC2CCN(C3CCC3)CC2)nc1)N1CCOCC1.O=C(O)C(O)C(O)C(=O)O` [Example 5, 3-[2-(1-Cyclobutylpiperidin-4-yloxy)pyridin-5-yl]-1-(morpholin-4-yl)prop-2-ene-1-one L(+)-Tartarate salt], the Inference result with Male Wister rats is on record as “Active”. Also, in the series with Male Wister rats (choice trial T2), the “Exploration time mean ± S.E.M, Familiar object” value was 9.64 ± 2.22 s and the “Exploration time mean ± S.E.M, Novel object” value came to 15.53 ± 2.36 s. In series [1], the Kp at 1 h is 0.92. In series [2] (1 mg/kg, Intravenous), the AUC(0-t) was determined as 173 ± 13 ng·h/mL, the Cmax amounted to 220 ± 10 ng/mL, the time to peak (Tmax) was 4.8 min and the half-life is 36 ± 12 min. The molecule further had a bioavailability in series [2] (3 mg/kg Per-Oral vs 1 mg/kg Intravenous) of 35 ± 5%. In series [2] (3 mg/kg, Per-Oral), the AUC(0-t) was 184 ± 25 ng·h/mL, the peak concentration (Cmax) was found to be 128 ± 6 ng/mL, the Tmax stood at 25.2 ± 8.4 min and the half-life was 66 ± 18 min. Further, the Ki in series [3] is 7.9 nM.
